From patent US20260035382A1, “COMPOUNDS AS SUMO ACTIVATING ENZYME INHIBITORS” (WIGEN BIOMEDICINE TECHNOLOGY (SHANGHAI) CO., LTD., priority 2022, published 2026)

Biological target: SAE (Homo sapiens (Human), UniProt Q9UBT2)
Assay: In vitro inhibitory activity assay against SAE (SUMO-2/3 immunofluorescence in HCT116 cells)
Type: cell-based
Conditions: 6 h incubation, class symbols, read-out: SUMO IF IC50
Method: HCT116 cells were seeded into a 96-well black transparent bottom plate at about 20000/well with 90 μL per well. The cells were incubated at 37° C. overnight for 24 h. The test compounds were 10-fold diluted to give a final concentration, and 10 μL of the diluted compounds was added to each well of the cell culture plate. The mixture was incubated at 37° C. for 6 h. The cells were then washed gently, the culture medium was discarded, and the cells were washed once with 200 μL of 0.1% o PBST. 50 μL of 4% PFA was added to each well, and the cells were immobilized at room temperature for 20 min, and then washed with PBS 2-3 times. 50 μL of 0.2% o Triton X-100 was added to each well, and the cells were left to stand at room temperature for 15 min and washed with 0.1% PBST 3 times. 100 uL of 3% BSA (0.6 g BSA+20 mL PBS) was added to each well, and the mixture was blocked at 37° C. for 30 min. After the blocking was completed, the liquid was removed and a primary antibody (SUMO-2/3 (181H8) Rabbit mAb, 1:400 dilution) was prepared with […]. 30 μL of the diluted primary antibody was added to each well, and the mixture was incubated at 4° C. overnight. The cells were washed 3 times with 200 μL of 0.1% o PBST. A FITC secondary antibody (Fluorescein (FITC)-conjugated Affinipure Goat Anti-Rabbit IgG (H+L), 1:300 dilution) was further prepared with 1% o BSA, and 40 μL of the diluted secondary antibody was added to each well. The mixture was incubated at room temperature in the dark for 2 h, and then the cells were washed 4 times with 0.1% PBST. The fluorescence signal of the sample was detected and compared to the DMSO group, and the inhibition rate and IC50 were calculated.

Chain of SAE (Q9UBT2 whole entry): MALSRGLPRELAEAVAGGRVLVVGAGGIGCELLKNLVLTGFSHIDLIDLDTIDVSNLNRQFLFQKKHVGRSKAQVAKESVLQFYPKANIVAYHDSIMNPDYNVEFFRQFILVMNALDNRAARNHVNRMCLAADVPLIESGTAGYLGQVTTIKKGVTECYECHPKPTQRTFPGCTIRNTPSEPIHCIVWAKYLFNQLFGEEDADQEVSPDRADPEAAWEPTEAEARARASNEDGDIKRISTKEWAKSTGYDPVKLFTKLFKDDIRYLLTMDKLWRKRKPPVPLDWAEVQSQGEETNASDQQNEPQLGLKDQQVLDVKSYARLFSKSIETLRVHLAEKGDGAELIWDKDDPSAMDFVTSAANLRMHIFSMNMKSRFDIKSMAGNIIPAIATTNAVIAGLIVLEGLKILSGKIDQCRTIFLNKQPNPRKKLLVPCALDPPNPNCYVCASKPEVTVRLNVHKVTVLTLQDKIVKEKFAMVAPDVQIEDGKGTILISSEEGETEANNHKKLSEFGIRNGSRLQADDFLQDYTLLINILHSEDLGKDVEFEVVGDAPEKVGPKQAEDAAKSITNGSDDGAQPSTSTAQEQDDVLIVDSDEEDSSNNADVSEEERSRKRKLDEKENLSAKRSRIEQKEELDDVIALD
Chain of SAE (Q9UBE0 whole entry partner): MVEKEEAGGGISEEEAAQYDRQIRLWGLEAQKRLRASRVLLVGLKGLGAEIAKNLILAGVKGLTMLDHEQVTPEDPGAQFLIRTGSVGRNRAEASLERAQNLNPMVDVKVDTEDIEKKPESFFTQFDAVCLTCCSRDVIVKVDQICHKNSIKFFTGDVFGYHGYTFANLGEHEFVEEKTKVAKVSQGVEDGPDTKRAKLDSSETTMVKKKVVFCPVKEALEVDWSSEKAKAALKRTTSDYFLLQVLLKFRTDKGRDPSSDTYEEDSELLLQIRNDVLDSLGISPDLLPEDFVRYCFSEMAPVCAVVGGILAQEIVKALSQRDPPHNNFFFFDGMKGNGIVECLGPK

Row | SMILES | IC50 [nM]
1 | NS(=O)(=O)OC[C@H]1C[C@@H](Nc2ncncc2C(=O)c2cc3c(s2)COCC32NCCc3c(F)cc(Cl)cc32)C[C@@H]1O (stereo partly drawn) [Compound 109] | 50 to 200
2 | NS(=O)(=O)OC[C@H]1C[C@@H](Nc2ncncc2C(=O)c2cc3c(s2)COC[C@@]32NCCc3c(F)cc(Cl)cc32)C[C@@H]1O [Compound 110] | > 200
3 | NS(=O)(=O)OC[C@H]1C[C@@H](Nc2ncncc2C(=O)c2cc3c(s2)COC[C@]32NCCc3c(F)cc(Cl)cc32)C[C@@H]1O [Compound 111] | 50 to 200
4 | CN1Cc2sc(C(=O)c3cncnc3N[C@@H]3C[C@H](COS(N)(=O)=O)[C@@H](O)C3)cc2C2(C1)NCCc1ccc(Cl)cc12 (stereo partly drawn) [Compound 112] | ≤ 50
5 | NS(=O)(=O)OC[C@H]1C[C@@H](Nc2ncncc2C(=O)c2cc3c(s2)CN(C2CC2)CC32NCCc3ccc(Cl)cc32)C[C@@H]1O (stereo partly drawn) [Compound 115] | ≤ 50
6 | NS(=O)(=O)OC[C@H]1C[C@@H](Nc2ncncc2C(=O)c2cc3c(s2)CNCC32NCCc3ccc(Cl)cc32)C[C@@H]1O (stereo partly drawn) [Compound 118] | 50 to 200
7 | NS(=O)(=O)OC[C@H]1C[C@@H](Nc2ncncc2C(=O)c2cc3c(s2)CNC[C@@]32NCCc3ccc(Cl)cc32)C[C@@H]1O [Compound 119] | > 200
8 | NS(=O)(=O)OC[C@H]1C[C@@H](Nc2ncncc2C(=O)c2cc3c(s2)CNC[C@]32NCCc3ccc(Cl)cc32)C[C@@H]1O [Compound 120] | 50 to 200
9 | NS(=O)(=O)OC[C@H]1C[C@@H](Nc2ncncc2C(=O)c2nc3c(s2)CCCC32NCCc3ccc(Cl)cc32)C[C@@H]1O (stereo partly drawn) [Compound 121] | > 200
10 | NS(=O)(=O)OC[C@H]1C[C@@H](Nc2ncncc2C(=O)c2nc3c(s2)CCC[C@@]32NCCc3ccc(Cl)cc32)C[C@@H]1O [Compound 122] | > 200
11 | NS(=O)(=O)OC[C@H]1C[C@@H](Nc2ncncc2C(=O)c2nc3c(s2)CCC[C@]32NCCc3ccc(Cl)cc32)C[C@@H]1O [Compound 123] | 50 to 200
12 | NS(=O)(=O)OC[C@H]1C[C@@H](Nc2ncncc2C(=O)c2nc3c(s2)COCC32NCCc3ccc(Cl)cc32)C[C@@H]1O (stereo partly drawn) [Compound 124] | > 200
13 | NS(=O)(=O)OC[C@H]1C[C@@H](Nc2ncncc2C(=O)c2nc3c(s2)COC[C@@]32NCCc3ccc(Cl)cc32)C[C@@H]1O [Compound 125] | > 200
14 | NS(=O)(=O)OC[C@H]1C[C@@H](Nc2ncncc2C(=O)c2nc3c(s2)CCC[C@]32NCCc3ccc(Cl)cc32)C[C@@H]1O [Compound 126] | > 200
15 | NS(=O)(=O)OC[C@H]1C[C@@H](Nc2ncncc2C(=O)c2nc3c(s2)CSCC32NCCc3ccc(Cl)cc32)C[C@@H]1O (stereo partly drawn) [Compound 127] | > 200
16 | NS(=O)(=O)OC[C@H]1C[C@@H](Nc2ncncc2C(=O)c2nc3c(s2)CSC[C@@]32NCCc3ccc(Cl)cc32)C[C@@H]1O [Compound 128] | > 200
17 | NS(=O)(=O)OC[C@H]1C[C@@H](Nc2ncncc2C(=O)c2nc3c(s2)CSC[C@]32NCCc3ccc(Cl)cc32)C[C@@H]1O [Compound 129] | 50 to 200
18 | CN1CCc2ccc(Cl)cc2C12CCCc1sc(C(=O)c3cncnc3N[C@@H]3C[C@H](COS(N)(=O)=O)[C@@H](O)C3)cc12 (stereo partly drawn) [Compound 130] | 50 to 200
19 | CN1CCc2ccc(Cl)cc2[C@]12CCCc1sc(C(=O)c3cncnc3N[C@@H]3C[C@H](COS(N)(=O)=O)[C@@H](O)C3)cc12 [Compound 131] | > 200
20 | CN1CCc2ccc(Cl)cc2[C@@]12CCCc1sc(C(=O)c3cncnc3N[C@@H]3C[C@H](COS(N)(=O)=O)[C@@H](O)C3)cc12 [Compound 132] | 50 to 200
21 | NS(=O)(=O)OC[C@H]1C[C@@H](Nc2ncncc2C(=O)c2cc3c(s2)CCCC32NCCc3cnc(Cl)cc32)C[C@@H]1O (stereo partly drawn) [Compound 133] | 50 to 200
22 | NS(=O)(=O)OC[C@H]1C[C@@H](Nc2ncncc2C(=O)c2cc3c(s2)CCC[C@@]32NCCc3cnc(Cl)cc32)C[C@@H]1O [Compound 134] | > 200
23 | NS(=O)(=O)OC[C@H]1C[C@@H](Nc2ncncc2C(=O)c2cc3c(s2)CCC[C@]32NCCc3cnc(Cl)cc32)C[C@@H]1O [Compound 135] | ≤ 50
24 | NS(=O)(=O)CC[C@H]1C[C@@H](Nc2ncncc2C(=O)c2cc3c(s2)CCCC32NCCc3ccc(Cl)nc32)C[C@@H]1O (stereo partly drawn) [Compound 136] | ≤ 50

Row | SMILES | IC50 [nM]
25 | NS(=O)(=O)OC[C@H]1C[C@@H](Nc2ncncc2C(=O)c2cc3c(s2)CCC[C@]32NCCc3ccc(Cl)nc32)C[C@@H]1O [Compound 138] | ≤ 50
26 | NS(=O)(=O)OC[C@H]1C[C@@H](Nc2ncncc2C(=O)c2cc3c(s2)CCCC32NCCc3ncc(Cl)cc32)C[C@@H]1O (stereo partly drawn) [Compound 139] | 50 to 200
27 | NS(=O)(=O)OC[C@H]1C[C@@H](Nc2ncncc2C(=O)c2cc3c(s2)CCC[C@@]32NCCc3ncc(Cl)cc32)C[C@@H]1O [Compound 140] | > 200
28 | NS(=O)(=O)OC[C@H]1C[C@@H](Nc2ncncc2C(=O)c2cc3c(s2)CCC[C@]32NCCc3ncc(Cl)cc32)C[C@@H]1O [Compound 141] | ≤ 50
29 | NS(=O)(=O)OC[C@H]1C[C@@H](Nc2ncncc2C(=O)c2cc3c(s2)CSCC32NCCc3cnc(Cl)cc32)C[C@@H]1O (stereo partly drawn) [Compound 142] | 50 to 200
30 | NS(=O)(=O)OC[C@H]1C[C@@H](Nc2ncncc2C(=O)c2cc3c(s2)CSC[C@@]32NCCc3cnc(Cl)cc32)C[C@@H]1O [Compound 143] | > 200
31 | NS(=O)(=O)OC[C@H]1C[C@@H](Nc2ncncc2C(=O)c2cc3c(s2)CSC[C@]32NCCc3cnc(Cl)cc32)C[C@@H]1O [Compound 144] | ≤ 50
32 | NS(=O)(=O)OC[C@H]1C[C@@H](Nc2ncncc2C(=O)c2cc3c(s2)CSCC32NCCc3ccc(Cl)nc32)C[C@@H]1O (stereo partly drawn) [Compound 145] | 50 to 200
33 | NS(=O)(=O)OC[C@H]1C[C@@H](Nc2ncncc2C(=O)c2cc3c(s2)CSC[C@@]32NCCc3ccc(Cl)nc32)C[C@@H]1O [Compound 146] | > 200
34 | NS(=O)(=O)OC[C@H]1C[C@@H](Nc2ncncc2C(=O)c2cc3c(s2)CSC[C@]32NCCc3ccc(Cl)nc32)C[C@@H]1O [Compound 147] | ≤ 50
35 | NS(=O)(=O)OC[C@H]1C[C@@H](Nc2ncncc2C(=O)c2cc3c(s2)CSCC32NCCc3ncc(Cl)cc32)C[C@@H]1O (stereo partly drawn) [Compound 148] | 50 to 200
36 | NS(=O)(=O)OC[C@H]1C[C@@H](Nc2ncncc2C(=O)c2cc3c(s2)CSC[C@@]32NCCc3ncc(Cl)cc32)C[C@@H]1O [Compound 149] | > 200
37 | NS(=O)(=O)CC[C@H]1C[C@@H](Nc2ncncc2C(=O)c2cc3c(s2)CSC[C@]32NCCc3ncc(Cl)cc32)C[C@@H]1O [Compound 150] | ≤ 50
38 | NS(=O)(=O)OC[C@H]1C[C@@H](Nc2ncncc2C(=O)c2cc3c(s2)CC2(CC2)CC32NCCc3ccc(Cl)cc32)C[C@@H]1O (stereo partly drawn) [Compound 151] | ≤ 50
39 | NS(=O)(=O)OC[C@H]1C[C@@H](Nc2ncncc2C(=O)c2cc3c(s2)CCC[C@@]32NCC3(CC3)c3ccc(Cl)cc32)C[C@@H]1O [Compound 152] | > 200
40 | NS(=O)(=O)OC[C@H]1C[C@@H](Nc2ncncc2C(=O)c2cc3c(s2)CCC[C@]32NCC3(CC3)c3ccc(Cl)cc32)C[C@@H]1O [Compound 153] | ≤ 50
41 | NS(=O)(=O)OC[C@H]1C[C@@H](Nc2ncncc2C(=O)c2cc3c(s2)C(F)=CC32NCCc3ccc(Cl)cc32)C[C@@H]1O (stereo partly drawn) [Compound 154] | ≤ 50
42 | NS(=O)(=O)OC[C@H]1C[C@@H](Nc2ncncc2C(=O)c2cc3c(s2)C(F)=C[C@@]32NCCc3ccc(Cl)cc32)C[C@@H]1O [Compound 155] | > 200
43 | NS(=O)(=O)OC[C@H]1C[C@@H](Nc2ncncc2C(=O)c2cc3c(s2)C(F)=C[C@]32NCCc3ccc(Cl)cc32)C[C@@H]1O [Compound 156] | ≤ 50
44 | CC1=CC2(NCCc3ccc(Cl)cc32)c2cc(C(=O)c3cncnc3N[C@@H]3C[C@H](COS(N)(=O)=O)[C@@H](O)C3)sc21 (stereo partly drawn) [Compound 157] | 50 to 200
45 | CC1=C[C@@]2(NCCc3ccc(Cl)cc32)c2cc(C(=O)c3cncnc3N[C@@H]3C[C@H](COS(N)(=O)=O)[C@@H](O)C3)sc21 [Compound 158] | > 200
46 | CC1=C[C@]2(NCCc3ccc(Cl)cc32)c2cc(C(=O)c3cncnc3N[C@@H]3C[C@H](COS(N)(=O)=O)[C@@H](O)C3)sc21 [Compound 159] | ≤ 50
47 | NS(=O)(=O)OC[C@H]1C[C@@H](Nc2ncncc2C(=O)c2cc3c(s2)C(F)(F)CC32NCCc3ccc(Cl)cc32)C[C@@H]1O (stereo partly drawn) [Compound 160] | 50 to 200

Same assay, conditions: 6 h incubation, numeric values, read-out: SUMO IF IC50

Row | SMILES | IC50 [nM]
48 | CN1Cc2sc(C(=O)c3cncnc3N[C@@H]3C[C@H](COS(N)(=O)=O)[C@@H](O)C3)cc2[C@@]2(C1)NCCc1ccc(Cl)cc12 [Compound 113] | > 1000
49 | CN1Cc2sc(C(=O)c3cncnc3N[C@@H]3C[C@H](COS(N)(=O)=O)[C@@H](O)C3)cc2[C@]2(C1)NCCc1ccc(Cl)cc12 [Compound 114] | 22.8
50 | NS(=O)(=O)OC[C@H]1C[C@@H](Nc2ncncc2C(=O)c2cc3c(s2)CN(C2CC2)C[C@@]32NCCc3ccc(Cl)cc32)C[C@@H]1O [Compound 116] | > 1000
51 | NS(=O)(=O)OC[C@H]1C[C@@H](Nc2ncncc2C(=O)c2cc3c(s2)CN(C2CC2)C[C@]32NCCc3ccc(Cl)cc32)C[C@@H]1O [Compound 117] | 19.1
